Assay results taken from patent publication US20230416168A1 (EUROCHEM ANTWERPEN, priority 2020, published 2023).
Like-named read-outs stand apart in the source and are kept apart here.

What was measured:
[1] = system: Nitrosospira multiformis; experiment: Nitrification inhibition assay with Nitrosospira multiformis (nitrite level after 24 h); type: cell-based; details: for IC50 / activity at 100 µM: Nitrosospira multiformis; for IC50: 8-point dose response, 2 to 100 μM, read-out: IC50; for activity at 100 µM: tested concentration 100 μM, 24 h, normalized to DMSO (100%) and 100 μM DMP (0%), read-out: Nitrification at tested concentration (0 = maximum activity)
Summary of the method: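 Dense N. multiformis cultures (5× concentrated in 181-medium) with ammonium were incubated 24 h at 30° C with shaking, then nitrite measured by Griess reagent at 540 nm. Relative nitrification normalised per plate to DMSO and 100 μM DMP controls; IC50 from logistic fit of 8-point doses 2-100 μM.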

[2] = system: Moorslede soil; experiment: In soil nitrification inhibition assay, Moorslede soil; details: for inhibition at 50 µM / inhibition at 5 µM / inhibition at 20 µM: soil
Description: Top layer (0 to 10 cm) soil samples were collected from different fields in Belgium (Merelbeke and Moorslede). Vegetation on the field trial was removed and samples were taken from different plots. All soil samples were mixed and sieved (mesh size 2.8 mm) to filter large debris and homogenize soil. The soil was stored at 5° C. in plastic containers covered with Saran foil to prevent changes in microbial community composition and to maintain the original soil water content.
Soil water content was determined by drying 20 g soil for 48 h in a 60° C. oven and measuring weight before and after drying. Based on the soil water content (±20%), compound solutions were prepared so that addition of 200 μl compound and 200 μl NH4Cl solution would result in a final compound concentration of 50 μM and a final NH4^+ concentration of 10 mM. Per treatment, 5 small pots were filled with 20 g soil. Next, the soil was treated first with the respective compound solution and then with the NH4Cl solution. Per tray, positive (50 μM DMP) and negative controls (DMSO) were included. Pots were incubated at 21° C. (6 a.m. to 10 p.m. light) for 7 days. Demineralized water was added to the soil every 2 to 3 days to a soil weight of 20 g. In the end, each sample of 20 g soil was dissolved in 100 ml 1M KCl and shaken for 1 hour, followed by filtration through Whatmann® paper. The filtrate was used to measure pH, NH4^+ and NO3− concentrations.
A set of examples was tested in the same conditions (Moorslede soil, 3 days of incubation) at a concentration of 50 μM.
Another set of examples was tested in different concentrations in Moorslede soil as well, and were sampled after 5 days.
The effect of 3H-1,3-thiazole-2-thione was tested in soil in accordance with the test described above in section 3.3.

[3] = 72 h, 3 days, read-out: % Nitrification inhibition in soil (3 days of incubation, Moorslede soil) at 50 μM
[4] = 120 h, 5 days, read-out: % Nitrification inhibition in soil (5 days of incubation, Moorslede soil) at indicated concentration
[5] = 120 h, 20 μM, 5 days, read-out: % Nitrification inhibition in soil (5 days of incubation, Moorslede soil) at indicated concentration

Compound | nitrification inhibition, in words [1] | IC50 [1] [µM] | activity at 100 µM [1] [%] | inhibition at 50 µM [2, 3] [%] | inhibition at 5 µM [2, 4] [%] | inhibition at 20 µM [2, 5] [%] | inhibition at 50 µM [2, 4] [%] | Average nitrification [%] in Nitrosospira multiformis ([1]; 2 μM) [%] | Average nitrification [%] in Nitrosospira multiformis ([1]; 3.5 μM) [%] | Average nitrification [%] in Nitrosospira multiformis ([1]; 6 μM) [%] | Average nitrification [%] in Nitrosospira multiformis ([1]; 11 μM) [%] | Average nitrification [%] in Nitrosospira multiformis ([1]; 19 μM) [%] | Average nitrification [%] in Nitrosospira multiformis ([1]; 33 μM) [%] | Average nitrification [%] in Nitrosospira multiformis ([1]; 57 μM) [%] | Average nitrification [%] in Nitrosospira multiformis ([1]; 100 μM) [%] | nitrification inhibition in soil, in words ([2]; 20 μM, 5 days) | inhibition at 20 µM ([2]; 120 h, 20 μM, 5 days, read-out: Average % nitrification inhibition in soil (5 days of incubation, Moorslede soil) at 20 μM) [%]
CN(Cc1nc2ccccc2s1)CN1CCOC1=S [Example 5, 3-[[1,3-benzothiazol-2-ylmethyl(methyl)amino]methyl]-1,3-oxazolidine-2-thione] | strong nitrification inhibition | < 3.5 | 0 | – | – | – | – | – | – | – | – | – | – | – | – | – | –
CSc1nccs1 [Example 25, 2-(methylsulfanyI)-1,3-thiazole] | – | 140 | 53 | 73 | 3 | 14 | 30 | 81 | 80 | 80 | 76 | 74 | 67 | 62 | 53 | – | –
S=c1[nH]ccs1 [Example 24, 3H-1,3-thiazole-2-thione] | very strong effect | 1.3 | 0 | 40 | – | – | – | 25 | 4 | 0 | 0 | 0 | 0 | 0 | 0 | effectively inhibits nitrification in soil | 14
S=C1NCCO1 [Example 7] | – | < 10 | 0 | 100 | 8 | 32 | 38 | – | – | – | – | – | – | – | – | – | –
CN(Cc1c(Cl)nc2sccn12)CN1CCSC1=S [Example 1, 3-[[(6-chloroimidazo[2,1-b][1,3]thiazol-5-yl)methyl-methylamino]methyl]-1,3-thiazolidine-2-thione] | strongly inhibited nitrification | < 0.8 | 0 | – | – | – | – | – | – | – | – | – | – | – | – | – | –
